Marks after values point to notes of the source that are not given here.
Columns and labels:
Assay type in all cases: in vivo, humans
[1] = Urinary elimination/recovery after 500 mg oral bolus of 13C5-C3G; conditions: urine, single 500 mg oral 13C5-C3G; for Tmax: male, human, po, 500 mg, urine collection interval, read-out: Time at maximum concentration; for Total recovery: 0-48 h; for Total recovery / Maximum concentration: mean ± SEM
Method: (§1) A detailed description of the clinical design was previously published ([Czank et al., 2013]). Briefly, a single 500 mg oral bolus dose of isotopically labelled C3G (^13C5-C3G) was fed to eight healthy male participants (body mass index, 18.5–30.5 kg·m^–2; aged 18–45 years) after an overnight fast (>8 h). Participants provided blood (baseline, 0.5, 1, 2, 4, 6, 24, 48 h), urine (individual voids between 0 and 6 h, total voids between 6–24 and 24–48 h), breath (baseline, 0.5, 1, 2, 4, 6, 24, 48 h) and faecal samples (all voids between 0–6, 6–24 and 24–48 h). The study was conducted at the Clinical Research and Trials Unit at the University of East Anglia according to the principles expressed in the Declaration of Helsinki and was approved by the Cambridgeshire 3 Research Ethics Committee (REC ref: 10/H0306/42) and registered at clinicaltrials.gov as NCT01106729.
(§2) Serum, urine and faecal samples were extracted by SPE and analysed by HPLC-ESI-MS/MS as recently described ([Czank et al., 2013]). The extraction efficiency was established as 87 ± 11% (coefficient of variation, CV; 6.8 ± 0.7%) for serum, 88 ± 18% (CV, 7.9 ± 0.8%) for urine and 81 ± 21% (CV, 14.1 ± 1.2%) for faeces (n = 3 replicates for each analyte). Sample extracts (5 μL) were injected onto a Kinetex PFP column (Phenomonex) and separated using an Agilent 1200 series HPLC with a QTrap 4000 linear ion trap mass spectrometer (ABSciex, Warrington, UK). […] Metabolite identification was performed by multiple reaction monitoring (MRM) optimized for the detection of pure standards with m/z of the parent and daughter fragments adjusted to +2,+3,+5 amu to allow identification of the ^13C-labelled metabolites derived from the B-ring, A-ring or the parent structure respectively. Metabolites were confirmed on the basis of retention time (using authentic and synthesized standards where possible) and three or more ion transitions. The HPLC-ESI-MS/MS method was validated for linearity and precision across all metabolites. Six point standard curves ranging from 1.25 to 20 μM were constructed from analytical standards and injected six times. The precision was established as 1.4–11.0% and linearity of the standard curves was established as r^2 = 0.991–1.000 (CV, 0.2%) across the identified metabolites.
(§3) Pharmacokinetic modelling of metabolites in the serum was performed with the PKSolver ‘add-on’ for Excel 2010 (Microsoft, […], USA) ([Zhang et al., 2010]) using non-compartmental analysis with the AUC calculated using the trapezoidal rule. Pharmacokinetic parameters were established for each individual analyte and presented as mean ± SEM. Urine samples collected during the first 6 h post-bolus were grouped together to the nearest hour time point (i.e. samples were not pooled but individual concentrations were averaged post-quantification) for graphical representation and to calculate total cumulative recovery. The concentration of metabolites was converted to amount recovered from urine by accounting for the molecular weight of the individual ^13C-labelled metabolites and the volume of the individual participants void and averaged across participants. Recovery of metabolites in the faeces was established from the molecular weight of the ^13C-labelled metabolite and the weight of the individual participants void adjusting for faecal water content as previously described ([Czank et al., 2013]). Urine and faecal recovery amounts are presented as mean ± SEM (n = 8), unless otherwise stated.

[2] = Faecal recovery after 500 mg oral bolus of 13C5-C3G; conditions: faeces, 500 mg oral 13C5-C3G; for Recovery 24–48 h / Recovery 6–24 h: mean ± SEM; for Recovery 0–6 h: 0–6 h (only 2 participants provided voids)
Method: The study was conducted at the Clinical Research and Trials Unit at the University of East Anglia according to the principles expressed in the Declaration of Helsinki and was approved by the Cambridgeshire 3 Research Ethics Committee (REC ref: 10/H0306/42) and registered at clinicaltrials.gov as NCT01106729.
Sample extracts (5 μL) were injected onto a Kinetex PFP column (Phenomonex) and separated using an Agilent 1200 series HPLC with a QTrap 4000 linear ion trap mass spectrometer (ABSciex, Warrington, UK). […] Metabolite identification was performed by multiple reaction monitoring (MRM) optimized for the detection of pure standards with m/z of the parent and daughter fragments adjusted to +2,+3,+5 amu to allow identification of the ^13C-labelled metabolites derived from the B-ring, A-ring or the parent structure respectively. […] The HPLC-ESI-MS/MS method was validated for linearity and precision across all metabolites.
Pharmacokinetic parameters were established for each individual analyte and presented as mean ± SEM. Urine samples collected during the first 6 h post-bolus were grouped together to the nearest hour time point (i.e. samples were not pooled but individual concentrations were averaged post-quantification) for graphical representation and to calculate total cumulative recovery. The concentration of metabolites was converted to amount recovered from urine by accounting for the molecular weight of the individual ^13C-labelled metabolites and the volume of the individual participants void and averaged across participants. […] Urine and faecal recovery amounts are presented as mean ± SEM (n = 8), unless otherwise stated.

[3] = Serum pharmacokinetics after 500 mg oral bolus of 13C5-C3G (HPLC-ESI-MS/MS, non-compartmental analysis); conditions: for half-life / Tmax / Cmax / AUC(0-t) / AUC0-48: serum; for half-life / t1/2: serum elimination half-life; for half-life / Tmax / Cmax / AUC(0-t) / t1/2 / AUC0-48: single 500 mg oral 13C5-C3G; for half-life / Tmax / AUC(0-t) / t1/2 / AUC0-48: mean ± SEM; for Cmax: healthy men, mean ± SEM of participants in whom detected; for AUC(0-t) / AUC0-48: trapezoidal rule; for AUC(0-t): read-out: AUC0-48
Method: as §1, §2, §3

[4] = male, human, po, 500 mg, read-out: tmax

| Structure (SMILES) | Tmax [1] [h] | Total recovery [1] [µg] | Maximum concentration [1] [nM] | Recovery 24–48 h [2] | Recovery 6–24 h [2] | also measured |
| --- | --- | --- | --- | --- | --- | --- |
| O=C(O)c1ccc(O)cc1 | 1 to 2 | 13.2 ± 3.7 | 49 ± 11 | 22.0 ± 11.6 ^g μg | – | – |
| O=C(O)c1cccc(O)c1O [2,3-Dihydroxybenzoic acid] | – | – | – | 440.4 ± 381.8 ^h μg | – | – |
| COc1ccc(C(=O)O)c(O)c1 [2-Hydroxy-4-methoxybenzoic acid] | 3 to 4 | 64.6 | 172 | 273.3 ± 272.7 ^h μg | 1.4 ^b μg | – |
| O=Cc1ccc(O)c(O)c1 [3,4-Dihydroxybenzaldehyde] | 0 to 1 | 6.3 ± 2.6 | 24 ± 7 | 5.1 ± 1.8 ^i μg | 3.4 ± 3.8 ^h μg | Maximum concentration ([1]; listed as 3,4-dihydroxybenzaldehyde): 24 nM |
| O=C(O)Cc1ccc(O)c(O)c1 [3,4-Dihydroxyphenylacetic acid] | 24 to 48 | 28.0 | 82 | 12.8 ± 7.5 ^c μg | 10.1 ± 4.0 ^e μg | Recovery 0–6 h [2]: 2.0 ^b μg |
| O=Cc1ccc(O)cc1 [4-Hydroxybenzaldehyde] | 5 to 6 | 10.0 ± 9.0 | 97 ± 94 | 0.1 ^b μg | 0.8 ± 0.8 ^h μg | half-life ([3]; male, human, po, 500 mg): 17.9 ± 8.8 h; Tmax [3, 4]: 5.6 ± 3.1 h; Cmax ([3]; male, human, po, 500 mg): 667 ± 653 nM; AUC(0-t) ([3]; male, human): 0.663 ± 0.505 µM·h |
| O=C(O)Cc1ccc(O)cc1 [4-Hydroxyphenylacetic acid] | 4 to 5 | 50.0 ± 2.0 | 391 ± 113 | 55.4 ^b μg | 7.3 ^b μg | – |
| COc1ccc(C=O)cc1 [4-Methoxybenzaldehyde] | – | – | – | – | 20.7 ^b μg | – |
| COc1cc(/C=C/C(=O)O)ccc1O [A-ring-derived ferulic acid] | – | – | – | – | 469.7 µg | t1/2 [3]: 96.5 ± 73.4 h |
| O=C(O)c1ccc(OC2OC(C(=O)O)C(O)C(O)C2O)cc1 (centres unmarked) [Benzoic acid-4-glucuronide] | 4 to 5 | 53.1 ± 18.1 | 129 ± 47 | 14.8 ± 8.0 ^i μg | 6.8 ± 3.0 ^c μg | half-life ([3]; male, human, po, 500 mg): 17.1 ± 3 h; Tmax [3, 4]: 10.9 ± 3.4 h; Cmax ([3]; male, human, po, 500 mg): 74 ± 20 nM; AUC(0-t) ([3]; male, human): 1.47 ± 0.489 µM·h; Recovery 0–6 h [2]: 1.5 ^b μg |
| O=C(O)/C=C/c1ccc(O)c(O)c1 [Caffeic acid] | – | – | – | 354.6 ± 125.0 ^h μg | 25.2 ^b μg | – |
| COc1cc(/C=C/C(=O)O)ccc1O [Ferulic acid] | – | – | – | – | – | Tmax [3, 4]: ~8 h; AUC(0-t) ([3]; male, human): 1.82 ± 1.05 µM·h; time of detection after consumption ([3]; serum and urine samples): ≤ 4 h; Tmax [3]: 8.2 ± 4.1 h; Recovery 6–24 h ([2]; listed as B-ring-derived ferulic acid): 2373.1 µg |
| O=C(O)CNC(=O)c1ccccc1 [Hippuric acid] | 6 to 24 | 2415.6 ± 2223.0 | 5417 ± 4906 | 27.5 ± 27.4 ^h μg | 12.0 ± 11.4 ^g μg | half-life ([3]; male, human, po, 500 mg): 95.6 ± 77.8 h; Tmax [3, 4]: ~16 h; Cmax ([3]; male, human, po, 500 mg): 1960 ± 1390 nM; Tmax [3]: 15.7 ± 4.1 h; Maximum concentration ([1]; listed as hippuric acid): 5417 nM |
| COc1ccc(C(=O)O)cc1OC1OC(C(=O)O)C(O)C(O)C1O (centres unmarked) [IsoVA-3-glucuronide] | – | 526.8 ± 92.2 | 699 ± 90 | 12.7 ± 10.9 ^h μg | 1.3 ^b μg | t1/2 [3]: 1.6 ± 0.2 h; Cmax [3]: 35 ± 5 nM; Tmax [3]: 4.3 ± 0.6 h; AUC0-48 [3]: 0.103 ± 0.013 µM·h; Recovery 0–6 h [2]: 1.8 ^b μg |
| COc1ccc(C(=O)O)cc1OS(=O)(=O)O [IsoVA-3-sulfate] | – | 183.2 ± 93.1 | 822 ± 557 | 176.1 ± 174.7 ^h μg | 0.6 ± 0.3 ^h μg | – |
| COc1ccc(C(=O)O)cc1O [IsoVA] | – | 79.5 ± 54.2 | 212 ± 130 | 8.5 ^b μg | 11.0 ^b μg | Cmax [3]: 195 nM; Tmax [3]: 2.0 h; AUC0-48 [3]: 0.189 µM·h |
| COC(=O)c1ccc(O)c(OC)c1 [Methyl vanillate] | – | – | – | – | 35.1 ^b μg | – |
| COC(=O)c1ccc(O)c(O)c1 [Methyl-3,4-dihydroxybenzoate] | 3 to 4 | 20.7 ± 8.0 | 108 ± 39 | 92.4 ± 49.4 ^f μg | 166.6 ± 100.6 ^g μg | half-life ([3]; male, human, po, 500 mg): 21.6 ± 5.9 h; Tmax [3, 4]: 8.4 ± 5.7 h; Cmax ([3]; male, human, po, 500 mg): 12 ± 5 nM; AUC(0-t) ([3]; male, human): 0.171 ± 0.07 µM·h |
| O=C(O)c1ccc(O)c(OC2OC(C(=O)O)C(O)C(O)C2O)c1 (centres unmarked) [PCA-3-glucuronide] | 1 to 2 | 197.7 ± 41.2 | 301 ± 72 | 49.0 ^b μg | 22.9 ± 22.0 ^g μg | half-life ([3]; male, human, po, 500 mg): 18 ± 15.6 h; Tmax [3, 4]: 2.7 ± 1 h; Cmax ([3]; male, human, po, 500 mg): 11 ± 3 nM; AUC(0-t) ([3]; male, human): 0.06 ± 0.038 µM·h |
| O=C(O)c1ccc(OS(=O)(=O)O)c(O)c1 [PCA-4-sulfate] | – | 492.4 ± 193.0 | 1244 ± 333 | 12.0 ± 10.2 ^g μg | 23.0 ± 18.1 ^g μg | – |
| COc1cc(-c2[o+]c3cc(O)cc(O)c3cc2OC2OC(CO)C(O)C(O)C2O)ccc1O (centres unmarked) [Peonidin-3-glucoside] | 1 to 2 | 22.9 ± 10.6 | 76 ± 43 | – | – | – |
| COc1cc(C(=O)O)ccc1OS(=O)(=O)O [VA-4-sulfate] | – | 449.1 ± 112.4 | 1682 ± 899 | 69.0 ± 39.1 ^g μg | – | Recovery 0–6 h [2]: 0.6 ^b μg |
